EP4653451A1, “POLYPEPTIDE COMPOUND AND USE THEREOF” (Chengdu New Radiomedicine Technology Co., Ltd., priority 2023, dated 2024)
Where two headings read alike, the source gives them in different places. Blank lines part the entries; values can stand above or below the compound they belong to. Numbered stars: 1 amine (or outer) side, 2 acyl side, 3 side chain; on linkers, the order of the positions; unused ones are H or OH. Bridge positions count the residues as written; N and C are the ends. Square brackets hold non-standard residues; d marks the D form. Peptide text beside a SMILES is read from it. * marks the point of attachment. X1 = O=C(O)CN1CCN(CC(=O)O)CCN(CC(=O)NCCSCc2cc(CSC[C@@H](CNC(=O)C3CCCC3)N[*:2])cc(C[*:1])c2)CCN(CC(=O)O)CC1; TBMB(SCH2CH2NH-DOTA) = O=C(O)CN1CCN(CC(=O)O)CCN(CC(=O)NCCSCc2cc(C[*:1])cc(C[*:2])c2)CCN(CC(=O)O)CC1; 1Nal = N[C@@H](Cc1cccc2ccccc12)C(=O)O; mXylylene = c1cc(C[*:1])cc(C[*:2])c1; NH(4-picolyl) = c1cc(CN*)ccn1; β3hC = N[C@@H](CS)CC(=O)O; Nle = CCCC[C@H](N)C(=O)O; Hexanoyl = CCCCCC(=O)*; X3 = C1C2CC1(N*)C2

Experiments:
[1] = Pharmacokinetics after tail vein injection; assay type: in vivo, CD-1 mice; settings: iv, 0.2 mg/kg
Procedure: Male CD-1 mice weighing 30-35 g were selected, and a test compound was injected into the tail vein at 0.2 mg/kg. Plasma samples were collected at 5, 15, 30, and 60 min and 2, 4, 8, and 24 h after administration and processed accordingly. The drug content was analyzed by LC-MS/MS.
Among them, compounds 20, 21 and 22 were compounds formed by chelating nonradioactive in with compounds 11, 14 and 16, respectively.

[2] = Distribution in tissues of HEK293-FAP tumor-bearing mice (gamma counter); assay type: in vivo, SCID mice; settings: male, SCID, mouse, in vivo, 100 uCi, total radioactivity
Procedure: (§1) Male SCID mice (6-8 weeks old) were subcutaneously inoculated with 5 × 10^6 HEK293-FAP cells (FAP was highly expressed in HEK293 cells). 10 days later, 30 mice with tumor size of 200-300 mm^3 were randomly divided into 3 groups. Each mouse in the 3 groups was administered with compound ^177Lu-3BP-3554, compound 29 and compound 30 with a radiation dose of 100 µCi, respectively. Blood, kidney and tumor tissues were collected at time points of 4 h, 8 h, 24 h, 72 h and 168 h, and all blood samples and tissue samples were measured for radioactive counts by gamma counter.

[3] = system: HEK293-FAP cells; assay: as above; assay type: in vivo, SCID mice; settings: for Blood / Kidney / Tumor: 100 µCi, SCID mice with HEK293-FAP tumor
Procedure: as §1

[4] = target: T1, human recombinant FAP protein (Homo sapiens, UniProt Q12884); assay: Inhibitory activity against FAP protease activity (Z-Gly-Pro-AMC fluorescence); assay type: biochemical; settings: 125 pM FAP working solution, 90 min at room temperature; read-out: FAP IC50
T1 construct: purchased Acrobiosystems FAP-H82Q6
T1 sequence (Q12884 1-760): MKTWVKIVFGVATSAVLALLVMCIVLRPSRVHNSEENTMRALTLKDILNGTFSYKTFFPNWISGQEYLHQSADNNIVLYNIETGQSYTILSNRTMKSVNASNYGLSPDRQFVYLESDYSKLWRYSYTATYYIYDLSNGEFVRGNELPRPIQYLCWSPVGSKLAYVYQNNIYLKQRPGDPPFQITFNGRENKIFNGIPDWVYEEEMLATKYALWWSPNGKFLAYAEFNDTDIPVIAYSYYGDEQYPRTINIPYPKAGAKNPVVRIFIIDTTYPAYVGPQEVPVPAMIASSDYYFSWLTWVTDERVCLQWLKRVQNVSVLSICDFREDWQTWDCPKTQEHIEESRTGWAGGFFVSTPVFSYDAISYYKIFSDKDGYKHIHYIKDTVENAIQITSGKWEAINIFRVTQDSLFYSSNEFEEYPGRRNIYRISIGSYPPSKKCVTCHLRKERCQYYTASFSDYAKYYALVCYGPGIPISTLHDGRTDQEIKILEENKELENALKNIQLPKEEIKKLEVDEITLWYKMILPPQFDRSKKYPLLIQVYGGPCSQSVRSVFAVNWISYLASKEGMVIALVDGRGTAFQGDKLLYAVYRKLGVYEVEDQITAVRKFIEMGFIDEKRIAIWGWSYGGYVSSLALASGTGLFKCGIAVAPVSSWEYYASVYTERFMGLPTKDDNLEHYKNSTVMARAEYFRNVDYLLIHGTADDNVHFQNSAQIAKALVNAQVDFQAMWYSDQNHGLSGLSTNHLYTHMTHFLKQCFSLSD
Procedure: The human recombinant FAP protein (Acrobiosystems, FAP-H82Q6) was diluted to a 125 pM FAP working solution with an assay buffer (50 mM Tris-HCl, 1 M NaCl, 1 mg/mL BSA, pH 7.5), and the FAP substrate (Z-Gly-Pro-AMC (LEONBIO, 68542-93-8)) was diluted to a 150 µM substrate working solution with the assay buffer. 40 µl of FAP working solution and 20 µl of compounds at different concentrations (4-fold dilution) were taken, then 40 µl of substrate working solution was added, and the mixture was uniformly mixed on a shaker at room temperature for 1 min. The uniformly mixed mixture was reacted at room temperature in the dark for 90 min. The fluorescence value Ex = 380 nm/Em = 460 nm was read by using a microplate reader. The original data was saved, and the IC50 value of the compound was obtained by using the original data or the Inhibition% via calculation and analyzing the data with Graphpad PRISM.

[5] = target: T2, human recombinant DPP4 protein (Homo sapiens, UniProt P27487); assay: Inhibitory activity against DPP4 protease activity (H-Gly-Pro-AMC fluorescence); assay type: biochemical; settings: 125 pM DPP4 working solution, 90 min at room temperature
T2 construct: purchased Acrobiosystems DP4-H5211
Procedure: The human recombinant DPP4 protein (Acrobiosystems, DP4-H5211) was formulated into a 125 pM working solution with an assay buffer (20 mM Tris-HCl, 100 mM NaCl), and the DPP4 substrate (H-Gly-Pro-AMC.HBr (LEONBIO, 115035-46-6)) was diluted to a 250 µM DPP4 substrate working solution with the assay buffer. 40 µl of DPP4 working solution and 20 µl of compounds at different concentrations (4-fold dilution) were taken, then 40 µl of DPP4 substrate working solution was added, and the mixture was uniformly mixed on a shaker at room temperature for 1 min. The uniformly mixed mixture was reacted at room temperature in the dark for 90 min. Reading was made by microplate reader at excitation and emission wavelengths of 380 nm and 460 nm. The original data was saved, and the IC50 value of the compound was obtained by analyzing the data with Graphpad PRISM.

T2 sequence (P27487 whole entry): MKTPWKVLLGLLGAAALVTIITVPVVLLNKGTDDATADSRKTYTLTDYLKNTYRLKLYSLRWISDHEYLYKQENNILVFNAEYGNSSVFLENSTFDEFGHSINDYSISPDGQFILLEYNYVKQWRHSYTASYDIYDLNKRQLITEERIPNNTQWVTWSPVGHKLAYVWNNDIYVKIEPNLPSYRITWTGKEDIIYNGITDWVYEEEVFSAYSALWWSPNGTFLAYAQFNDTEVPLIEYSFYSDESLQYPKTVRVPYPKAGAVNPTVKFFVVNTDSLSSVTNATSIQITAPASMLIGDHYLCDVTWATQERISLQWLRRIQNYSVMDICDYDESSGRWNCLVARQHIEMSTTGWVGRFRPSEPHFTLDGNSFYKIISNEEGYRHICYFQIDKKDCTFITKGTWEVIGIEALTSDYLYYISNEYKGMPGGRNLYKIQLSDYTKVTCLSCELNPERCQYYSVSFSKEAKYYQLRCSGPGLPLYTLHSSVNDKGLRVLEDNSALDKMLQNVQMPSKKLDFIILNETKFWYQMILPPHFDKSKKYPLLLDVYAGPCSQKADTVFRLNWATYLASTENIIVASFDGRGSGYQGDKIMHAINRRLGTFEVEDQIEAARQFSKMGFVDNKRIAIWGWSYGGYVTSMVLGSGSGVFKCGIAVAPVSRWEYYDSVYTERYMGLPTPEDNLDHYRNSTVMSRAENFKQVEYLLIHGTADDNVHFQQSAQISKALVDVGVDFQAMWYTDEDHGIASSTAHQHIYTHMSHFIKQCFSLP

Compound: CCCCCC(=O)N[C@H]1CSCc2cc(CSCCNC(=O)CN3CCN(CC(=O)O)CCN(CC(=O)O)CCN(CC(=O)O)CC3)cc(c2)CSC[C@@H](CC(=O)O)NC(=O)[C@H](Cc2cccc3ccccc23)NC(=O)[C@H](CCC(N)=O)NC(=O)[C@H]([C@@H](C)O)NC(=O)[C@@H]2CCCN2C(=O)[C@@H]2CCCN2C1=O [Compound 20] (Hexanoyl-CPPTQ[1Nal][β3hC]-OH; linker 1-7 via TBMB(SCH2CH2NH-DOTA))
AUC(0-t) ([1]; male, CD-1, mouse, in vivo): 308 ng·h/mL
Cmax ([1]; male, CD-1, mouse, in vivo): 772 ng/mL
Vd ([1]; male, CD-1, mouse, in vivo): 0.52 L/kg
clearance ([1]; male, CD-1, mouse, in vivo): 10.2 mL/min/kg
half-life ([1]; male, CD-1, mouse, in vivo): 1.63 h

Compound: CCCCCC(=O)N[C@H]1CSCc2cccc(c2F)CSC[C@@H](CNC(=O)C[C@@H](C)NC(=O)[C@H]2CC[C@H](CNC(=O)CN3CCN(CC(=O)O)CCN(CC(=O)O)CCN(CC(=O)O)CC3)CC2)NC(=O)[C@H](Cc2ccccc2)NC(=O)[C@H](CCC(N)=O)NC(=O)[C@H]([C@@H](C)O)NC(=O)[C@@H]2CCCN2C(=O)[C@@H]2CCCN2C1=O [Compound 22]
AUC(0-t) ([1]; male, CD-1, mouse, in vivo): 740 ng·h/mL
Cmax ([1]; male, CD-1, mouse, in vivo): 1120 ng/mL
Vd ([1]; male, CD-1, mouse, in vivo): 1.18 L/kg
clearance ([1]; male, CD-1, mouse, in vivo): 4.33 mL/min/kg
half-life ([1]; male, CD-1, mouse, in vivo): 7.93 h

Compound: CCCCCC(=O)N[C@H]1CSCc2cccc(c2)CSC[C@@H](CC(=O)NCc2ccncc2)NC(=O)[C@H](Cc2cccc3ccccc23)NC(=O)[C@H](CCC(N)=O)NC(=O)[C@H]([C@@H](C)O)NC(=O)[C@@H]2CCCN2C(=O)[C@@H]2CCCN2C1=O [Compound 37] (Hexanoyl-CPPTQ[1Nal][β3hC]-{NH(4-picolyl)}; linker 1-7 via mXylylene)
IC50 [4]: 4.67 nM
IC50 [5]: > 10000 nM

Compound: CCCCCC(=O)N[C@H]1CSCc2cccc(c2)CSC[C@@H](CC(=O)NC23CC(C2)C3)NC(=O)[C@H](Cc2cccc3ccccc23)NC(=O)[C@H](CCC(N)=O)NC(=O)[C@H]([C@@H](C)O)NC(=O)[C@@H]2CCCN2C(=O)[C@@H]2CCCN2C1=O [Compound 38] (Hexanoyl-CPPTQ[1Nal][β3hC]-X3; linker 1-7 via mXylylene)
IC50 [4]: 4.12 nM
IC50 [5]: > 10000 nM

Compound: CCCC[C@H](N)C(=O)N[C@H]1CSCc2cccc(c2)CSC[C@@H](CC(=O)O)NC(=O)[C@H](Cc2cccc3ccccc23)NC(=O)[C@H](CCC(N)=O)NC(=O)[C@H]([C@@H](C)O)NC(=O)[C@@H]2CCCN2C(=O)[C@@H]2CCCN2C1=O [Compound 39] (H-[Nle]CPPTQ[1Nal][β3hC]-OH; linker 2-8 via mXylylene)
IC50 [4]: 5.31 nM
IC50 [5]: > 10000 nM

The next lines start with results.

AUC(0-t) ([1]; mouse, plasma, male CD-1 mice, tail vein, read-out: AUC0-t): 195 ng·h/mL
clearance ([1]; mouse, plasma, male CD-1 mice, tail vein, read-out: Cl (converted)): 17 mL/min/kg
Cmax ([1]; mouse, plasma, male CD-1 mice, tail vein, read-out: Cmax): 594 ng/mL
half-life ([1]; mouse, plasma, male CD-1 mice, tail vein, read-out: T1/2 (converted)): 0.37 h
Vd ([1]; mouse, plasma, male CD-1 mice, tail vein, read-out: Vss): 0.24 L/kg
Compound: CCCCCC(=O)N[C@H]1CSCc2cc(CSCCNC(=O)CN3CCN(CC(=O)O)CCN(CC(=O)O)CCN(CC(=O)O)CC3)cc(c2)CSC[C@@H](C(=O)O)NC(=O)[C@H](Cc2ccccc2)NC(=O)[C@H](CCC(N)=O)NC(=O)[C@H]([C@@H](C)O)NC(=O)[C@@H]2CCCN2C(=O)[C@@H]2CCCN2C1=O [Compound 3BP-3623, reference compound]

AUC(0-t) ([1]; male, CD-1, mouse, in vivo): 634 ng·h/mL
Cmax ([1]; male, CD-1, mouse, in vivo): 1010 ng/mL
Vd ([1]; male, CD-1, mouse, in vivo): 0.22 L/kg
clearance ([1]; male, CD-1, mouse, in vivo): 5.17 mL/min/kg
half-life ([1]; male, CD-1, mouse, in vivo): 1.26 h
Compound: CCCCCC(=O)N[C@H]1CSCc2cc(CSCCNC(=O)CN3CCN(CC(=O)O)CCN(CC(=O)O)CCN(CC(=O)O)CC3)cc(c2)CSC[C@@H](CNC(=O)C2CCCC2)NC(=O)[C@H](Cc2ccccc2)NC(=O)[C@H](CCC(N)=O)NC(=O)[C@H]([C@@H](C)O)NC(=O)[C@@H]2CCCN2C(=O)[C@@H]2CCCN2C1=O [Compound 21] (Hexanoyl-CPPTQF; linker 1-C via X1)

tissue to tissue ratio at 4 h ([2]; Tumor/blood): 26.2
tissue to tissue ratio at 8 h ([2]; Tumor/blood): 70.1
tissue to tissue ratio at 24 h ([2]; Tumor/blood): 1630
tissue to tissue ratio at 72 h ([2]; Tumor/blood): 2410
tissue to tissue ratio at 168 h ([2]; Tumor/blood): 1160
tissue to tissue ratio at 4 h ([2]; Tumor/kidney): 2.32
tissue to tissue ratio at 8 h ([2]; Tumor/kidney): 3.18
tissue to tissue ratio at 24 h ([2]; Tumor/kidney): 3.99
tissue to tissue ratio at 72 h ([2]; Tumor/kidney): 7.12
tissue to tissue ratio at 168 h ([2]; Tumor/kidney): 27.6
Compound: CCCCCC(=O)N[C@H]1CSCc2cc(CSCCNC(=O)CN3CCN(CC(=O)O)CCN(CC(=O)O)CCN(CC(=O)O)CC3)cc(c2)CSC[C@@H](CC(=O)O)NC(=O)[C@H](Cc2cccc3ccccc23)NC(=O)[C@H](CCC(N)=O)NC(=O)[C@H]([C@@H](C)O)NC(=O)[C@@H]2CCCN2C(=O)[C@@H]2CCCN2C1=O [Compound 29] (Hexanoyl-CPPTQ[1Nal][β3hC]-OH; linker 1-7 via TBMB(SCH2CH2NH-DOTA))
injection dose%/g tissue at different time points ([3]; mouse, in vivo): significantly higher than that of ^177Lu-3BP-3554
tissue selectivity for kidney and blood tissues ([3]; mouse, in vivo): better tissue selectivity for kidney and blood tissues than ^177Lu-3BP-3554

Blood ([3]; 4 h): 0.07 ID %/g
Kidney ([3]; 4 h): 6.65 ID %/g
Tumor ([3]; 4 h): 21.21 ID %/g
Blood ([3]; 8 h): 0.02 ID %/g
Kidney ([3]; 8 h): 6.37 ID %/g
Tumor ([3]; 8 h): 18.42 ID %/g
Blood ([3]; 24 h): 0.01 ID %/g
Kidney ([3]; 24 h): 2.92 ID %/g
Tumor ([3]; 24 h): 10.37 ID %/g
Blood ([3]; 72 h): 0.0038 ID %/g
Kidney ([3]; 72 h): 0.86 ID %/g
Tumor ([3]; 72 h): 5.05 ID %/g
Blood ([3]; 168 h): 0.0091 ID %/g
Kidney ([3]; 168 h): 0.16 ID %/g
Tumor ([3]; 168 h): 1.52 ID %/g
Compound: CCCCCC(=O)N[C@H]1CSCc2cc(CSCCNC(=O)CN3CCN(CC(=O)O)CCN(CC(=O)O)CCN(CC(=O)O)CC3)cc(c2)CSC[C@@H](C(=O)O)NC(=O)[C@H](Cc2ccccc2)NC(=O)[C@H](CCC(N)=O)NC(=O)[C@H]([C@@H](C)O)NC(=O)[C@@H]2CCCN2C(=O)[C@@H]2CCCN2C1=O [^177Lu-3BP-3554, metal not drawn, reference compound]
